From patent publication US11008313B2, “Substituted 1-methyl-1,2,3,4-tetrahydroisoquinoline molecules as PCSK9 allosteric binders” (Merck Sharp & Dohme Corp., priority 2016, dated 2021)

Assays:
PCSK9 [1] = target: T1, PCSK9 (Homo sapiens, UniProt Q8NBP7); assay: Fluorescence polarization competition binding assay (probe: compound of Example 57); conditions: 2 μM PCSK9, 50 nM compound of Example 57 as probe, overnight incubation; read-out: FP IC
Description: Relative compound affinities were determined using a competition binding assay with a fluorescence polarization format. Solution (49 μL) containing 2 μM PCSK9 and 50 nM compound of Example 57 in 20 mM HEPES (pH 7.5)/150 mM NaCl/1 mM CaCl2/0.005% P-20 was dispensed to wells of a 384-well black non-binding microplate before the addition of 1 μL of test compound or DMSO. After mixing, the plate was centrifuged and sealed for overnight incubation in the dark. The anisotropy signal was read using a fluorescence polarization protocol on a Perkin-Elmer Envision plate reader. The % inhibition was determined relative to the window defined by the DMSO control wells and wells containing 50 nM probe in the absence of PCSK9.

PCSK9 [2] = target: T1, PCSK9; assay: Differential scanning calorimetry (DSC) assay, direct binding / thermal stabilization of PCSK9; conditions: Tm(with compound)−Tm(no compound); 2 μM PCSK9, 300 μM test compound
Description: Differential scanning calorimetry (DSC) was used as a biophysical method to confirm direct binding to PCSK9. A solution containing 2 μM PCSK9 with or without 300 μM test compound in 25 mM HEPES (pH 7.5)/150 mM NaCl/1 mM CaCl2/3.75% DMSO was transferred to the sample cell of the DSC instrument, while buffer alone was placed in the reference cell. Both cells were heated at a constant rate (200° C./hr) from 20-80° C. while recording the excess heat capacity of the sample cell relative to the reference cell. Each thermogram was analyzed to provide the melting temperature (Tm) of the protein.
The higher the temperature shift generally, the higher the affinity.

T1 sequence (Q8NBP7 153-692): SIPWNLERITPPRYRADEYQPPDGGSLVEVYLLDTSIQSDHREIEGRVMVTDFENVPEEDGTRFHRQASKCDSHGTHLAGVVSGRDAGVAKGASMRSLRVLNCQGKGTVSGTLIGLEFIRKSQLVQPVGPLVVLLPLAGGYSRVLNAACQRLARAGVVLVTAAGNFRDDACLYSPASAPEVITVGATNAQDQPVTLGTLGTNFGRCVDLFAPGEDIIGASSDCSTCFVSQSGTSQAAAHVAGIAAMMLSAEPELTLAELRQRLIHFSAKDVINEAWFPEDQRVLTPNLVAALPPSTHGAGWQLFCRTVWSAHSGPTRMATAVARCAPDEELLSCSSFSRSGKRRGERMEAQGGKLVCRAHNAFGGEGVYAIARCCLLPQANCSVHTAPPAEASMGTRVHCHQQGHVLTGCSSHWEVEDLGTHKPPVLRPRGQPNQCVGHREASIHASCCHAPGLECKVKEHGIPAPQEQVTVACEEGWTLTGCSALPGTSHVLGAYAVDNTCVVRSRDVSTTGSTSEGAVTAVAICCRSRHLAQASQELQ

Compound | IC50 (PCSK9 [1]) | ΔTm at 300 µM (PCSK9 [2]) | DSC ΔTm (PCSK9 [2])
C[C@]1(CC(=O)Nc2nccs2)NCCc2cc(OCC3CCCCO3)c(Oc3ccc(C(=O)O)c(F)c3)cc21 (single isomer, unassigned) [Example 70, 2-fluoro-4-(((1R)-1-methyl-1-(2-oxo-2-(thiazol-2-ylamino)ethyl)-6-(((R or S)-tetrahydro-2H-pyran-2-yl)methoxy)-1,2,3,4-tetrahydroisoquinolin-7-yl)oxy)benzoic acid] | 551 nM | 7.98 °C | 
C[C@]1(CC(=O)Nc2nccs2)NCCc2cc(OCC3CCCCO3)c(Oc3ccc(C(=O)Nc4n[nH]c5ncccc45)c(F)c3)cc21 (single isomer, unassigned) [Example 75, 2-fluoro-4-(((R)-1-methyl-1-(2-oxo-2-(thiazol-2-ylamino)ethyl)-6-(((R or S)-tetrahydro-2H-pyran-2-yl)methoxy)-1,2,3,4-tetrahydroisoquinolin-7-yl)oxy)-N-(1H-pyrazolo[3,4-b]pyridin-3-yl)benzamide] | 410 nM | 6.18 °C | 
Cn1nccc1NC(=O)c1ccc(Oc2cc3c(cc2OCC2CCCCO2)CCN[C@]3(C)CC(=O)Nc2nccs2)cc1F (single isomer, unassigned) [Example 77, 2-fluoro-4-(((R)-1-methyl-1-(2-oxo-2-(thiazol-2-ylamino)ethyl)-6-(((R or S)-tetrahydro-2H-pyran-2-yl)methoxy)-1,2,3,4-tetrahydroisoquinolin-7-yl)oxy)-N-(1-methyl-1H-pyrazol-5-yl)benzamide] | 591 nM | 6.67 °C | 
C[C@]1(CC(=O)Nc2nccs2)NCCc2cc(OCC3CCCCO3)c(Oc3cccc(F)c3)cc21 (single isomer, unassigned) [Example 80, 2-((1R)-7-(3-fluorophenoxy)-1-methyl-6-(((R or S)-tetrahydro-2H-pyran-2-yl)methoxy)-1,2,3,4-tetrahydroisoquinolin-1-yl)-N-(thiazol-2-yl)acetamide] | 550 nM | 6.09 °C | 
C[C@]1(CC(=O)Nc2nccs2)NCCc2cc(OCC3CCCCO3)c(Oc3cccc(F)c3)cc21 (single isomer, unassigned) [Example 81, 2-((1R)-7-(3-fluorophenoxy)-1-methyl-6-(((S or R)-tetrahydro-2H-pyran-2-yl)methoxy)-1,2,3,4-tetrahydroisoquinolin-1-yl)-N-(thiazol-2-yl)acetamide] | 550 nM |  | 6.585 °C
COc1cc2c3cc1Oc1ccc(C(=O)O)c(c1)OCCCCCCc1csc(n1)NC(=O)C[C@@]3(C)NCC2 [Example 1, (Z)-36-methoxy-31-methyl-5-oxo-31,32,33,34-tetrahydro-2,14-dioxa-6-aza-7(2,4)-thiazola-3(7,1)-isoquinolina-1(1,3)-benzenacyclotetradecaphane-14-carboxylic acid] | 3670 nM | 4.29 °C | 
COc1cc2c3cc1Oc1ccc(C(=O)O)c(c1)OC/C=C\CCc1csc(n1)NC(=O)C[C@@]3(C)NCC2 [Example 2, (R,72Z)-36-methoxy-31-methyl-5-oxo-31,32,33,34-tetrahydro-2,13-dioxa-6-aza-7(2,4)-thiazola-3(7,1)-isoquinolina-1(1,3)-benzenacyclotridecaphan-10-ene-14-carboxylic acid] | 1240 nM | 6.21 °C | 
COC(=O)c1ccc2cc1OCCCCCc1csc(n1)NC(=O)C[C@@]1(C)NCCc3cc(OC)c(cc31)O2 [Example 3, methyl (R,Z)-36-methoxy-31-methyl-5-oxo-31,32,33,34-tetrahydro-2,13-dioxa-6-aza-7(2,4)-thiazola-3(7,1)-isoquinolina-1(1,3)-benzenacyclotridecaphane-14-carboxylate] | 1250 nM | 4.92 °C | 
CC1=CC(C)=[N+]2C1=Cc1ccc(CCC(=O)NCCOCCOc3cc4c(cc3Oc3ccc(C(=O)O)c(F)c3)[C@@](C)(CC(=O)Nc3nccs3)NCC4)n1[B-]2(F)F [Example 57] |  |  | 6.15 °C
C[C@]1(CC(=O)Nc2nccs2)NCCc2cc(OCCOCCOCCNC(=O)CCCC[C@@H]3SC[C@@H]4NC(=O)N[C@@H]43)c(Oc3ccc(C(=O)O)cc3)cc21 [Example 58, 4-(((R)-1-methyl-1-(2-oxo-2-(thiazol-2-ylamino)ethyl)-6-(2-(2-(2-(5-((3aS,4S,6aR)-2-oxohexahydro-1H-thieno[3,4-d]imidazol-4-yl)pentanamido)ethoxy)ethoxy)ethoxy)-1,2,3,4-tetrahydroisoquinolin-7-yl)oxy)benzoic acid] |  | 5.88 °C | 
Cc1cc(C)n2c1C=C1C=CC(CCC(=O)NCCOCCOc3cc4c(cc3Oc3ccc(C(=O)O)cc3)[C@@](C)(CC(=O)Nc3nccs3)NCC4)=[N+]1[B-]2(F)F [Example 59, (R)-4-((6-(2-(2-(3-(5,5-difluoro-7,9-dimethyl-5H-4l4,5l4-dipyrrolo[1,2-c:2′,1′-f][1,3,2]diazaborinin-3-yl)propanamido)ethoxy)ethoxy)-1-methyl-1-(2-oxo-2-(thiazol-2-ylamino)ethyl)-1,2,3,4-tetrahydroisoquinolin-7-yl)oxy)benzoic acid] |  | 5.15 °C | 
C[C@]1(CC(=O)Nc2nccs2)NCCc2cc(OCCOCCNC(=O)CCCC[C@@H]3SC[C@@H]4NC(=O)N[C@@H]43)c(Oc3ccc(C(=O)O)cc3)cc21 [Example 60, 4-(((R)-1-methyl-1-(2-oxo-2-(thiazol-2-ylamino)ethyl)-6-(2-(2-(5-((3aS,4S,6aR)-2-oxohexahydro-1H-thieno[3,4-d]imidazol-4-yl)pentanamido)ethoxy)ethoxy)-1,2,3,4-tetrahydroisoquinolin-7-yl)oxy)benzoic acid] |  | 6.42 °C | 
COC(=O)c1ccc(Oc2cc3c(cc2OCCOCCNC(=O)CCC2=[N+]4C(=Cc5c(C)cc(C)n5[B-]4(F)F)C=C2)CCN[C@]3(C)CC(=O)Nc2nccs2)cc1F [Example 61, methyl (R)-4-((6-(2-(2-(3-(5,5-difluoro-7,9-dimethyl-5H-4l4,5l4-dipyrrolo[1,2-c:2′,1′-f][1,3,2]diazaborinin-3-yl)propanamido)ethoxy)ethoxy)-1-methyl-1-(2-oxo-2-(thiazol-2-ylamino)ethyl)-1,2,3,4-tetrahydroisoquinolin-7-yl)oxy)-2-fluorobenzoate] |  | 2.87 °C | 
Cc1ncsc1-c1ccc(CNC(=O)[C@@H]2C[C@@H](O)CN2C(=O)[C@@H](NC(=O)COCC(=O)NCCOCCOc2cc3c(cc2Oc2ccc(-c4ccc(C(=O)O)cc4)c(F)c2)[C@@](C)(CC(=O)Nc2nccs2)NCC3)C(C)(C)C)cc1 [Example 105, 2′-fluoro-4′-(((R)-6-(((S)-13-((2S,4R)-4-hydroxy-2-((4-(4-methylthiazol-5-yl)benzyl)carbamoyl)pyrrolidine-1-carbonyl)-14,14-dimethyl-7,11-dioxo-3,9-dioxa-6,12-diazapentadecyl)oxy)-1-methyl-1-(2-oxo-2-(thiazol-2-ylamino)ethyl)-1,2,3,4-tetrahydroisoquinolin-7-yl)oxy)-[1,1′-biphenyl]-4-carboxylic acid] | 225 nM |  | 

More lines, main results first:

IC50 (PCSK9 [1]) | ΔTm at 300 µM (PCSK9 [2]) | Compound | DSC ΔTm (PCSK9 [2])
487 nM | 7.06 °C | COc1cc2c(cc1Oc1ccc(C(=O)O)c(F)c1)[C@@](C)(CC(=O)Nc1nccs1)NCC2 [Example 4, (R)-2-fluoro-4-((6-methoxy-1-methyl-1-(2-oxo-2-(thiazol-2-ylamino)ethyl)-1,2,3,4-tetrahydroisoquinolin-7-yl)oxy)benzoic acid] | 
561 nM | 6.99 °C | COc1cc2c(cc1Oc1cc(F)c(C(=O)O)c(F)c1)[C@@](C)(CC(=O)Nc1nccs1)NCC2 [Example 5, (R)-2,6-difluoro-4-((6-methoxy-1-methyl-1-(2-oxo-2-(thiazol-2-ylamino)ethyl)-1,2,3,4-tetrahydroisoquinolin-7-yl)oxy)benzoic acid] | 
648 nM | 5.78 °C | COc1cc2c(cc1Oc1ccc3cnccc3c1)[C@@](C)(CC(=O)Nc1nccs1)NCC2 [Example 6, (R)-2-(7-(isoquinolin-6-yloxy)-6-methoxy-1-methyl-1,2,3,4-tetrahydroisoquinolin-1-yl)-N-(thiazol-2-yl)acetamide] | 
652 nM | 5.59 °C | COc1cc2c(cc1Oc1ccnc(F)c1)[C@@](C)(CC(=O)Nc1nccs1)NCC2 [Example 7, (R)-2-(7-((2-fluoropyridin-4-yl)oxy)-6-methoxy-1-methyl-1,2,3,4-tetrahydroisoquinolin-1-yl)-N-(thiazol-2-yl)acetamide] | 
753 nM | 5.44 °C | COc1cc2c(cc1Oc1cncc(F)c1)[C@@](C)(CC(=O)Nc1nccs1)NCC2 [Example 8, (R)-2-(7-((5-fluoropyridin-3-yl)oxy)-6-methoxy-1-methyl-1,2,3,4-tetrahydroisoquinolin-1-yl)-N-(thiazol-2-yl)acetamide] | 
847 nM | 5.92 °C | COc1cc2c(cc1Oc1cccc(F)c1)[C@@](C)(CC(=O)Nc1nccs1)NCC2 [Example 9, (R)-2-(7-(3-fluorophenoxy)-6-methoxy-1-methyl-1,2,3,4-tetrahydroisoquinolin-1-yl)-N-(thiazol-2-yl)acetamide] | 
 | 6.8 °C | COc1cc2c(cc1-c1ccc(F)c(C(=O)O)c1)[C@@](C)(CC(=O)Nc1nccs1)NCC2 [Example 112, (R)-2-fluoro-5-(6-methoxy-1-methyl-1-(2-oxo-2-(thiazol-2-ylamino)ethyl)-1,2,3,4-tetrahydroisoquinolin-7-yl)benzoic acid] | 
